Results reported in ChEMBL document CHEMBL4622879, “Structural Revision of Garcinielliptin Oxide and Garcinielliptone E” (J Nat Prod, 2020).
Activity calls are given as the source filed them.

Legend:
Acetylcholinesterase = Acetylcholinesterase (Homo sapiens, UniProt P22303); assay: Inhibition of human erythrocyte acetylcholinesterase using acetylthiocholine as substrate preincubated for 20 mins followed by substrate addition and measured after 30 mins by Ellman's method
RAW264.7 = assay: Antiinflammatory activity in mouse RAW264.7 assessed as reduction in LPS-induced NO production; format: functional, cell-based
K562 = assay: Cytotoxicity against human K562 cells at 40 uM after 1 to 11 days by tetrazolium reagent based assay; format: functional, cell-based
HCT-116 = assay: Cytotoxicity against human HCT116 cells at 40 uM after 1 to 11 days by tetrazolium reagent based assay; format: functional, cell-based
MDA-MB-231 = assay: Cytotoxicity against human MDA-MB-231 cells at 40 uM after 1 to 11 days by tetrazolium reagent based assay; format: functional, cell-based
A549 = assay: Cytotoxicity against human A549 cells at 40 uM after 1 to 11 days by tetrazolium reagent based assay; format: functional, cell-based
HepG2 = assay: Cytotoxicity against human HepG2 cells at 40 uM after 1 to 11 days by tetrazolium reagent based assay; format: functional, cell-based

Chain of Acetylcholinesterase (P22303 whole entry): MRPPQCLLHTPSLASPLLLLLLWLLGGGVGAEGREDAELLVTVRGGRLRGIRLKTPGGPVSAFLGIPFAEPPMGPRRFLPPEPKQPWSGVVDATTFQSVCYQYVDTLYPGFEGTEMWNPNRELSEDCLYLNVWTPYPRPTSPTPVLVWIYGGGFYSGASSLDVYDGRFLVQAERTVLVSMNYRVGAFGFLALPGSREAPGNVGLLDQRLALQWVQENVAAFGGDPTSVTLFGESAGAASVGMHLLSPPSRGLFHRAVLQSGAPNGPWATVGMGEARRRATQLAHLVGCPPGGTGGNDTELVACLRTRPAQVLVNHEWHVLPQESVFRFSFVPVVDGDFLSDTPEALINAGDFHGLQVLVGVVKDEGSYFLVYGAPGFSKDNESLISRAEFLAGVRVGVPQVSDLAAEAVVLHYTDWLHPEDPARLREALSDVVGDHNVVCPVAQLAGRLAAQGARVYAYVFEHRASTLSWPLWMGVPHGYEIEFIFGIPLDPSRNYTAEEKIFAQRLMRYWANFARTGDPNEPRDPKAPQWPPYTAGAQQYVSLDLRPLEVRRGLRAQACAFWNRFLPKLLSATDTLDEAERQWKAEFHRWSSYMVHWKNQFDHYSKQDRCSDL

CC(C)=CC[C@H]1C[C@]2(CC=C(C)C)C(=O)[C@]3(CC=C(C)C)O[C@@]1(C(=O)C(C)C)[C@@]2(O)C(C)(C)C3=O
inactive: Activity (RAW264.7) | Activity (K562) | Activity (HCT-116) | Activity (MDA-MB-231) | Activity (A549) | Activity (HepG2)
20.7 µM: IC50 (Acetylcholinesterase)

CCC(C)C(=O)[C@]12C(=O)[C@]3(CC=C(C)C)OC1(O)[C@](CC=C(C)C)(C[C@H](CC=C(C)C)C2(C)C)C3=O (stereo partly drawn)
inactive: Activity (RAW264.7) | Activity (K562) | Activity (HCT-116) | Activity (MDA-MB-231) | Activity (A549) | Activity (HepG2)
